Data: PubChem BioAssay (NCI)
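Interpolation was linear, between the two tested concentrations surrounding the appropriate level; five concentrations were tested over 48 hours in 96-well plates. At the TGI there is no net growth.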

Legend:
Assay in all cases: inhibition of tumour cell growth, NCI panel, 48 h
[1] = system: 786-0 renal
[2] = system: A549 NSCLC
[3] = system: ACHN renal
[4] = system: BT-549 breast
[5] = system: CAKI-1 renal
[6] = system: CCRF-CEM leukemia
[7] = system: COLO 205 colon
[8] = system: EKVX NSCLC
[9] = system: HCC-2998 colon
[10] = system: HCT-116 colon
[11] = system: HCT-15 colon
[12] = system: HOP-62 NSCLC
[13] = system: HS 578T breast
[14] = system: HT29 colon
[15] = system: IGROV1 ovarian
[16] = system: K-562 leukemia
[17] = system: KM12 colon
[18] = system: LOX IMVI melanoma
[19] = system: M14 melanoma
[20] = system: MCF7 breast
[21] = system: MDA-MB-231 breast
[22] = system: MDA-MB-435
[23] = system: MOLT-4 leukemia
[24] = system: NCI-H226 lung
[25] = system: NCI-H23 lung
[26] = system: NCI-H460 lung
[27] = system: NCI-H522 lung
[28] = system: NCI/ADR-RES ovarian
[29] = system: OVCAR-3 ovarian
[30] = system: OVCAR-4 ovarian
[31] = system: OVCAR-5 ovarian
[32] = system: OVCAR-8 ovarian
[33] = system: PC-3 prostate
[34] = system: RXF 393 renal
[35] = system: SF-268 CNS
[36] = system: SF-295 CNS
[37] = system: SF-539 CNS
[38] = system: SK-MEL-2 melanoma
[39] = system: SK-MEL-28 melanoma
[40] = system: SK-MEL-5 melanoma
[41] = system: SK-OV-3 ovarian
[42] = system: SN12C renal
[43] = system: SNB-19 CNS
[44] = system: SNB-75 CNS
[45] = system: SR leukemia
[46] = system: SW-620 colon
[47] = system: TK-10 renal
[48] = system: U251 CNS
[49] = system: UACC-257 melanoma
[50] = system: UACC-62 melanoma
[51] = system: UO-31 renal
[52] = system: A498 renal
[53] = system: DU-145 prostate
[54] = system: HL-60(TB) leukemia
[55] = system: MALME-3M melanoma
[56] = system: RPMI-8226 leukemia

SMILES: CC1(C)N([O-])[N+](=O)C1(C)Br (stereo unspecified)
- TGI [1]: > 100 µM
- TGI [2]: > 100 µM
- TGI [3]: > 100 µM
- TGI [4]: > 100 µM
- TGI [5]: > 100 µM
- TGI [6]: > 100 µM
- TGI [7]: > 100 µM
- TGI [8]: > 100 µM
- TGI [9]: > 100 µM
- TGI [10]: > 100 µM
- TGI [11]: > 100 µM
- TGI [12]: > 100 µM
- TGI [13]: > 100 µM
- TGI [14]: > 100 µM
- TGI [15]: > 100 µM
- TGI [16]: > 100 µM
- TGI [17]: > 100 µM
- TGI [18]: > 100 µM
- TGI [19]: > 100 µM
- TGI [20]: > 100 µM
- TGI [21]: > 100 µM
- TGI [22]: > 100 µM
- TGI [23]: > 100 µM
- TGI [24]: > 100 µM
- TGI [25]: > 100 µM
- TGI [26]: > 100 µM
- TGI [27]: > 100 µM
- TGI [28]: > 100 µM
- TGI [29]: > 100 µM
- TGI [30]: > 100 µM
- TGI [31]: > 100 µM
- TGI [32]: > 100 µM
- TGI [33]: > 100 µM
- TGI [34]: > 100 µM
- TGI [35]: > 100 µM
- TGI [36]: > 100 µM
- TGI [37]: > 100 µM
- TGI [38]: > 100 µM
- TGI [39]: > 100 µM
- TGI [40]: > 100 µM
- TGI [41]: > 100 µM
- TGI [42]: > 100 µM
- TGI [43]: > 100 µM
- TGI [44]: > 100 µM
- TGI [45]: > 100 µM
- TGI [46]: > 100 µM
- TGI [47]: > 100 µM
- TGI [48]: > 100 µM
- TGI [49]: > 100 µM
- TGI [50]: > 100 µM
- TGI [51]: > 100 µM

SMILES: CCN(CC)c1ccc2cc(C(=O)Nc3ccccc3OC)c(=N)oc2c1
- TGI [1]: > 100 µM
- TGI [52]: > 100 µM
- TGI [2]: > 100 µM
- TGI [3]: > 100 µM
- TGI [4]: 74.5 µM
- TGI [5]: 72.1 µM
- TGI [6]: 20.8 µM
- TGI [7]: > 100 µM
- TGI [53]: > 100 µM
- TGI [8]: > 100 µM
- TGI [9]: > 100 µM
- TGI [10]: > 100 µM
- TGI [11]: 88.3 µM
- TGI [54]: 31.6 µM
- TGI [12]: > 100 µM
- TGI [13]: 98.4 µM
- TGI [14]: > 100 µM
- TGI [15]: 35.3 µM
- TGI [16]: > 100 µM
- TGI [17]: > 100 µM
- TGI [18]: 58.2 µM
- TGI [19]: > 100 µM
- TGI [55]: > 100 µM
- TGI [20]: > 100 µM
- TGI [22]: > 100 µM
- TGI [23]: 17.2 µM
- TGI [25]: 89.8 µM
- TGI [26]: > 100 µM
- TGI [27]: 65.6 µM
- TGI [28]: 90.8 µM
- TGI [29]: > 100 µM
- TGI [30]: > 100 µM
- TGI [31]: > 100 µM
- TGI [32]: 23 µM
- TGI [33]: 59.6 µM
- TGI [56]: 88.7 µM
- TGI [35]: > 100 µM
- TGI [36]: > 100 µM
- TGI [37]: > 100 µM
- TGI [38]: > 100 µM
- TGI [39]: > 100 µM
- TGI [40]: > 100 µM
- TGI [41]: > 100 µM
- TGI [43]: > 100 µM
- TGI [45]: > 100 µM
- TGI [46]: > 100 µM
- TGI [48]: > 100 µM
- TGI [49]: > 100 µM
- TGI [50]: > 100 µM
- TGI [51]: 1.58 µM
